From publication PMC3530532, “Corticosteroid-Binding Globulin: Structure-Function Implications from Species Differences” (PLoS ONE, 2012)

T1: Rat CBG-WT (Rattus norvegicus, UniProt P31211)
T1 construct: residues 5 to 374 of rat CBG (P31211); GST (N, cleaved yes); made in house; host or cells: E. coli BL21 Star (DE3)
T1 sequence (P31211 27-396): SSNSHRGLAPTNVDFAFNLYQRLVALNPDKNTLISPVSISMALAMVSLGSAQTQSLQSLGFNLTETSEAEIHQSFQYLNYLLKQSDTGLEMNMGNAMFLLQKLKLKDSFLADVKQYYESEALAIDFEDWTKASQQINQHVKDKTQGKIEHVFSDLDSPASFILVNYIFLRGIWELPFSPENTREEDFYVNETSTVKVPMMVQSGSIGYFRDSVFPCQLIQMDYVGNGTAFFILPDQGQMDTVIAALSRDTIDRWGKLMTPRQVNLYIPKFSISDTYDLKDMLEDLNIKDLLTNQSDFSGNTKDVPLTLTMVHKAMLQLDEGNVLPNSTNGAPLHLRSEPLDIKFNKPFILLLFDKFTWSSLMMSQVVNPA


Key:
Rat CBG-WT = biological target: T1, Rat CBG-WT; experiment: Isothermal titration calorimetry, steroid titrated to rat CBG-WT; type: binding; details: ITC, 25°C
Experimental: The coding sequences of residues 11 to 383 of human CBG (Swiss-Prot entry P08185) and residues 5 to 374 of rat CBG (P31211) were cloned into a pGEX-2T vector (GE Healthcare, Uppsala), yielding N-terminal glutathione-S-transferase (GST) fusion proteins. Mutations were introduced using a two-stage PCR procedure based on the QuikChange (Stratagene, Santa Clara) site-directed mutagenesis protocol. All experiments with human CBG were conducted with a mutant in which surface residue Lys126 was replaced by alanine in order to facilitate crystallization. Wild-type rat CBG (rat CBG-WT) and rat CBG mutants CBG-RCL1, CBG-RCL2 and CBG-RCL3 were produced to probe the function of the RCL residues in rat CBG. All gene constructs were confirmed by DNA sequencing prior to protein production.
The GST-tagged human and rat CBG variants were produced in E. coli BL21 Star™ (DE3) cells (Invitrogen, Carlsbad) using the ZYM-5052 auto-inducing medium. For each variant, 10 L of ZYM-5052 medium containing 100 µg/mL ampicillin were inoculated with an overnight culture of a single clone. The flasks were incubated at 37°C until the optical density at 600 nm reached 0.3. The temperature was then lowered to 20°C, and the cells were allowed to grow for an additional 20 h. The pellet was resuspended in PBS buffer (pH 7.4) containing 5 mM EDTA after cell harvesting (4 mL of buffer per gram of pellet).
The protein samples were dialyzed against ITC buffer (20 mM potassium phosphate, 50 mM NaCl, pH 7.4) and titrated with steroids in a VP-ITC microcalorimeter (Microcal, Piscataway). All solutions were filtered (0.2 µm filter pore size) and degassed for 30 min prior to the titration experiments. The sample cell was filled with protein solution containing 15 µM rat CBG or 20 µM human CBG and titrated with steroid solutions containing 150 µM and 200 µM ligand, respectively. The titrations consisted of an initial injection of 2 µL followed by 25 consecutive injections of 10 µL ligand solution at 25°C. A spacing of 240 sec between the injections was used to allow a return to the baseline. Data points from the initial injection, which are generally affected by diffusion during the initial equilibration period after experiment setup, were discarded prior to data analysis. […] The binding curve was generated by plotting the heats of injections against the ratio of ligand to protein in the cell. Integrated heat data were analyzed using nonlinear regression fit with a one-site-binding model in the Origin-7™ software provided with the VP-ITC. Changes in the free energy and entropy can be calculated using the equation: ΔG° = −RTlnK = ΔH°−TΔS°. In this equation ΔG° is the change in Gibbs free energy, R the universal gas constant, T the temperature, and K the association constant. The change in enthalpy is denoted as ΔH°, and ΔS° is the change in entropy under standard conditions. The data shown in Table 2 were obtained from single titrations of each complex.

[1] = Thermal denaturation monitored by CD spectroscopy; type: physicochemical; details: for thermal unfolding temperature / thermal stability: CD at 222 or 220 nm, 1°C/min, 10 mM potassium phosphate pH 7.4; for change of thermal stability upon RCL cleavage: elastase-cleaved vs uncleaved, CD-monitored
Experimental: Heat-induced unfolding transitions were recorded at protein concentrations between 0.5 and 0.7 µM in 10 mM potassium phosphate (pH 7.4). The samples were heated at a rate of 1°C/min in a 1 cm cell and the ellipticity was monitored at 222 or 220 nm. The sensitivity was set to 50 mdeg with a bandwidth of 1 nm and 8 sec response time.

Row | Molecule | thermal unfolding temperature / thermal stability [1] | change of thermal stability upon RCL cleavage [1] | other results
1 | C[C@]12C[C@H](O)[C@H]3[C@@H](CCC4=CC(=O)CC[C@@]43C)[C@@H]1CC[C@@H]2C(=O)CO [Corticosterone] |  |  | TΔS° (Rat CBG-WT; rat CBG-WT): -14.6 kcal/mol; ΔG° (Rat CBG-WT; rat CBG-WT): -10.2 kcal/mol; ΔH° (Rat CBG-WT; rat CBG-WT): -24.76 kcal/mol; Kd (Rat CBG-WT; single titration, uncleaved rat CBG-WT): 37 ± 2 nM
2 | cleaved human alpha-1-antitrypsin: human alpha-1-antitrypsin after cleavage of the RCL | 90 °C |  | 
3 | uncleaved human alpha-1-antitrypsin: human alpha-1-antitrypsin, archetypical member of the SERPIN family, used to validate the setup | about 60 °C |  | 
4 | CBG-RCL2: rat CBG variant CBG-RCL1 plus mutations P329T and N333T (protein, UniProt P31211 23-396, looked up, variant A335V P336T P329T N333T) Corticosteroid-binding …: STNESSNSHRGLAPTNVDFAFNLYQRLVALNPDKNTLISPVSISMALAMVSLGSAQTQSLQSLGFNLTETSEAEIHQSFQYLNYLLKQSDTGLEMNMGNAMFLLQKLKLKDSFLADVKQYYESEALAIDFEDWTKASQQINQHVKDKTQGKIEHVFSDLDSPASFILVNYIFLRGIWELPFSPENTREEDFYVNETSTVKVPMMVQSGSIGYFRDSVFPCQLIQMDYVGNGTAFFILPDQGQMDTVIAALSRDTIDRWGKLMTPRQVNLYIPKFSISDTYDLKDMLEDLNIKDLLTNQSDFSGNTKDVPLTLTMVHKAMLQLDEGNVLTNSTTGVTLHLRSEPLDIKFNKPFILLLFDKFTWSSLMMSQVVNPA |  | neither of these humanized rat CBG variants displayed an increased thermal stability | 
5 | CBG-RCL3: rat CBG variant CBG-RCL2 plus R174K, D323N, G325E and N326G (protein, UniProt P31211 23-396, looked up, variant A335V P336T P329T N333T R174K D323N G325E N326G) Corticosteroid-binding …: STNESSNSHRGLAPTNVDFAFNLYQRLVALNPDKNTLISPVSISMALAMVSLGSAQTQSLQSLGFNLTETSEAEIHQSFQYLNYLLKQSDTGLEMNMGNAMFLLQKLKLKDSFLADVKQYYESEALAIDFEDWTKASQQINQHVKDKTQGKIEHVFSDLDSPASFILVNYIFLKGIWELPFSPENTREEDFYVNETSTVKVPMMVQSGSIGYFRDSVFPCQLIQMDYVGNGTAFFILPDQGQMDTVIAALSRDTIDRWGKLMTPRQVNLYIPKFSISDTYDLKDMLEDLNIKDLLTNQSDFSGNTKDVPLTLTMVHKAMLQLNEEGVLTNSTTGVTLHLRSEPLDIKFNKPFILLLFDKFTWSSLMMSQVVNPA |  | neither of these humanized rat CBG variants displayed an increased thermal stability | 
